Data as given in US8633167B2, “Method for the protection of trees” (Syngenta Crop Protection LLC, priority 2006, dated 2014).

System: Ips engravers beetles
Assay: Bolt study (Example 1): Ips attack and gallery construction on loblolly pine bolts cut after trunk injection
Format: in vivo
Conditions: for reduction of length of egg galleries compared to check trees / reduction of total number of egg galleries compared to check trees: May
From the text: The intent of the study was to evaluate the efficacy of systemic injections of emamectin benzoate in reducing success of pine bark beetle attacks on loblolly pine and determine the duration of treatment efficacy. As SPB populations were extremely low in Texas in 2004, Ips engravers beetles were used as indicator species.
Two 20-year-old, recently thinned loblolly pine plantations were selected on land owned by Temple-Inland Forest Products Corporation about 5 km south of Wells (Angelina County), Tex. Trees in one plantation were injected for use in a bolt study (Example 1). Trees in a 0.2 ha section of the second plantation were injected as part of a single-tree protection study (Example 2). A staging area also was set up in the second plantation where bolts from the first plantation were exposed to bark beetles and wood borers.
Seventy-five loblolly pine trees, Pinus taeda L., 15-20 cm diameter at breast height (DBH), were selected in March 2004. Each treatment was injected into four cardinal points about 0.3 m above the ground on each of 15 trees in April (16th-23rd) using the new Arborjet Tree IV™ microinfusion system (Arborjet, Inc. Woburn, Mass.). The treatments included: • 1) Emamectin benzoate (Denim®, 1.92% ai, Syngenta Crop Science)—Denim® was mixed 1:1 with methanol and applied at 18.6 ml solution per inch of tree diameter at breast height (DBH) (=0.2 g active per inch DBH). • 2) Check (untreated)
After 1 (May 24), 3 (July 19) and 5 (September) months post-injection, 5 trees of each treatment were felled and two 1.5 m long bolts were removed from the 3 m and 8 m heights of the bole. The bolts were transported to a nearby plantation that was recently thinned and contained fresh slash material. Each bolt was placed about 1 m apart on discarded, dry pine bolts to maximize surface area available for colonization as well as to discourage predation by ground and litter-inhabiting organisms. To facilitate timely bark beetle colonization, packets of bark beetle pheromones (racemic ipsdienol + lanerione combination, ipsenol or cis-verbenol; Phero Tech, Inc., Delta, BC, Canada) were attached separately to three 1 m stakes evenly spaced in the study area. Racemic ipsdienol and cis-verbenol were used with the second and third series of bolts deployed in July and September, respectively. The packets were removed after 2 weeks when signs of attacks (boring dust) were observed on most test bolts, signaling that naturally-produced pheromones were present.
A clear panel of acetate (10 cm wide by 25 cm long) was attached to the center of each bolt after deployment of bolts to monitor arrival of bark beetles. The top surface of each panel was coated entirely with Stikem Special® trapping compound (Michel and Pelton, Emeryville, Calif.). The traps were left in place for two weeks.
Each series of bolts were retrieved about 3 weeks after deployment, after observing many cerambycid egg niches on the bark surface of most bolts. There was concern that if cerambycid larvae were allowed to develop too long, their feeding activity would obscure or obliterate the Ips galleries. Thus, each series of bolts were retrieved and stored temporarily in a TFS seedling cooler (˜45° F.) to slow cerambycid development until the bolts could be evaluated.
In the laboratory, two 10×50 cm strips (total=1000 cm^2) of bark were removed from each bolt. […]

[1] = 1 Month Post-Injection (May), bolt height 3 m
[2] = 1 Month Post-Injection (May), bolt height 8 m
[3] = 3 Months Post-Injection (July), bolt height 3 m
[4] = 3 Months Post-Injection (July), bolt height 8 m
[5] = 5 Months Post-Injection (September), bolt height 3 m
[6] = 5 Months Post-Injection (September), bolt height 8 m

## 4″-deoxy-4″-N-methylamino avermectin B1a/B1b [Emamectin]
[1]
  Length of Egg Galleries Total Length: 30.7 a cm
  Length of Egg Galleries With Brood % Total: 49.5%
  Length of Egg Galleries With Brood cm: 15.2 a cm
  Length of Egg Galleries Without Brood % Total: 50.5%
  Length of Egg Galleries Without Brood cm: 15.5 a cm
  Mean # of Ips caught/Trap: 3.8 a
  Mean # of Nuptial Chambers Without Egg Galleries No.: 14.6 c
  Mean # of Nuptial Chambers Without Egg Galleries Total: 78.5
  Mean # of Nuptial Chambers with Egg Galleries No.: 4.0 a
  Mean # of Nuptial Chambers with Egg Galleries Total: 21.5
  Mean Total # of Nuptial Chambers: 18.6 a
  Number of Egg Galleries Total Galleries: 12.4 a
  Number of Egg Galleries With Brood % Total: 19.4%
  Number of Egg Galleries With Brood No.: 2.4 a
  Number of Egg Galleries Without Brood % Total: 80.6%
  Number of Egg Galleries Without Brood No.: 10.0 a
[2]
  Length of Egg Galleries Total Length: 13.5 a cm
  Length of Egg Galleries With Brood % Total: 8.9%
  Length of Egg Galleries With Brood cm: 1.2 a cm
  Length of Egg Galleries Without Brood % Total: 91.1%
  Length of Egg Galleries Without Brood cm: 12.3 a cm
  Mean # of Ips caught/Trap: 4.8 a
  Mean # of Nuptial Chambers Without Egg Galleries No.: 9.0 c
  Mean # of Nuptial Chambers Without Egg Galleries Total: 69.2
  Mean # of Nuptial Chambers with Egg Galleries No.: 4.0 a
  Mean # of Nuptial Chambers with Egg Galleries Total: 30.8
  Mean Total # of Nuptial Chambers: 13.0 ab
  Number of Egg Galleries Total Galleries: 4.2 a
  Number of Egg Galleries With Brood % Total: 4.8%
  Number of Egg Galleries With Brood No.: 0.2 a
  Number of Egg Galleries Without Brood % Total: 95.2%
  Number of Egg Galleries Without Brood No.: 4.0 a
[3]
  Length of Egg Galleries Total Length: 0.0 a cm
  Length of Egg Galleries With Brood cm: 0.0 a cm
  Length of Egg Galleries Without Brood cm: 0.0 a cm
  Mean # of Ips caught/Trap: 1.8 a
  Mean # of Nuptial Chambers Without Egg Galleries No.: 11.0 b
  Mean # of Nuptial Chambers Without Egg Galleries Total: 100.0
  Mean # of Nuptial Chambers with Egg Galleries No.: 0.0 a
  Mean # of Nuptial Chambers with Egg Galleries Total: 0.0
  Mean Total # of Nuptial Chambers: 11.0 ab
  Number of Egg Galleries Total Galleries: 0.0 a
  Number of Egg Galleries With Brood No.: 0.0 a
  Number of Egg Galleries Without Brood No.: 0.0 a
[4]
  Length of Egg Galleries Total Length: 0.0 a cm
  Length of Egg Galleries With Brood cm: 0.0 a cm
  Length of Egg Galleries Without Brood cm: 0.0 a cm
  Mean # of Ips caught/Trap: 3.4 a
  Mean # of Nuptial Chambers Without Egg Galleries No.: 8.4 c
  Mean # of Nuptial Chambers Without Egg Galleries Total: 100.0
  Mean # of Nuptial Chambers with Egg Galleries No.: 0.0 a
  Mean # of Nuptial Chambers with Egg Galleries Total: 0.0
  Mean Total # of Nuptial Chambers: 8.4 b
  Number of Egg Galleries Total Galleries: 0.0 a
  Number of Egg Galleries With Brood No.: 0.0 a
  Number of Egg Galleries Without Brood No.: 0.0 a
[5]
  Length of Egg Galleries Total Length: 0.0 a cm
  Length of Egg Galleries With Brood cm: 0.0 a cm
  Length of Egg Galleries Without Brood cm: 0.0 a cm
  Mean # of Ips caught/Trap: 1.2 a
  Mean # of Nuptial Chambers Without Egg Galleries No.: 3.8 b
  Mean # of Nuptial Chambers Without Egg Galleries Total: 100.0
  Mean # of Nuptial Chambers with Egg Galleries No.: 0.0 a
  Mean # of Nuptial Chambers with Egg Galleries Total: 0.0
  Mean Total # of Nuptial Chambers: 3.8 a
  Number of Egg Galleries Total Galleries: 0.0 a
  Number of Egg Galleries With Brood No.: 0.0 a
  Number of Egg Galleries Without Brood No.: 0.0 a
[6]
  Length of Egg Galleries Total Length: 0.0 a cm
  Length of Egg Galleries With Brood cm: 0.0 a cm
  Length of Egg Galleries Without Brood cm: 0.0 a cm
  Mean # of Ips caught/Trap: 0.4 a
  Mean # of Nuptial Chambers Without Egg Galleries No.: 4.4 b
  Mean # of Nuptial Chambers Without Egg Galleries Total: 100.0
  Mean # of Nuptial Chambers with Egg Galleries No.: 0.0 a
  Mean # of Nuptial Chambers with Egg Galleries Total: 0.0
  Mean Total # of Nuptial Chambers: 4.4 a
  Number of Egg Galleries Total Galleries: 0.0 a
  Number of Egg Galleries With Brood No.: 0.0 a
  Number of Egg Galleries Without Brood No.: 0.0 a
July and September, all bolts
  construction of egg galleries: completely prevented
July and September, both heights
  attacks unsuccessful: 100%
3 m
  reduction of length of egg galleries compared to check trees: 94%
  reduction of total number of egg galleries compared to check trees: 81%
8 m
  reduction of length of egg galleries compared to check trees: 99%
  reduction of total number of egg galleries compared to check trees: 96%
Bolts evaluated in May, 3 m height
  attacks unsuccessful: 79%
Bolts evaluated in May, 8 m height
  attacks unsuccessful: 69%
Both examples, one, three and five months after injection
  preventing successful attacks by Ips bark beetles and cerambycids: highly effective
